Converted amounts (≈) assume the structure as drawn. Peptide text beside a SMILES is read from it. * marks the point of attachment. βNA = c1ccc2cc(N*)ccc2c1
Key:
Campylobacter jejuni [1] = test: Inactivation of CmeABC efflux pump in Campylobacter jejuni 25-19 assessed as change in erythromycin MIC by agar dilution method
[2] = molecular target: T1, CmeA (Campylobacter jejuni) (UniProt Q8RTE5); test: Inactivation of CmeABC efflux pump in Campylobacter jejuni 25-19 assessed as change in clarithromycin MIC by agar dilution method
T1 sequence (whole entry): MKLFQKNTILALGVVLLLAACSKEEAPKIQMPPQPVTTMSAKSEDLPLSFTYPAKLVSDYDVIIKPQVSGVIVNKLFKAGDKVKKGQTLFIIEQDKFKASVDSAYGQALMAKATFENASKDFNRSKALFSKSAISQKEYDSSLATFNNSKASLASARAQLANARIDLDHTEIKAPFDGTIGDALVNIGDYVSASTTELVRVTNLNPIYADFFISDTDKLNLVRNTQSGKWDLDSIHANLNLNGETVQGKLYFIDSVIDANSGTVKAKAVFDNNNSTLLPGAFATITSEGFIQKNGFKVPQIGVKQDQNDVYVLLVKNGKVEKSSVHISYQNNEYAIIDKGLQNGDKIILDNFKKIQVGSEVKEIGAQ

Campylobacter jejuni [3] = test: Antibacterial activity against Campylobacter jejuni UA709 carrying A2074C mutation in 23S rRNA by agar dilution method; format: functional
Campylobacter jejuni [4] = test: Antibacterial activity against Campylobacter jejuni 001B-22 carrying A2075G mutation in 23S rRNA by agar dilution method; format: functional
Campylobacter jejuni [5] = test: Antibacterial activity against Campylobacter jejuni 001B-40 carrying A2075G mutation in 23S rRNA by agar dilution method; format: functional
Campylobacter jejuni [6] = test: Antibacterial activity against Campylobacter jejuni UA709 cmeB::kanamycin-resistant mutant by agar dilution method; format: functional
Campylobacter jejuni [7] = test: Antibacterial activity against Campylobacter jejuni 001B-22 cmeB::kanamycin-resistant mutant by agar dilution method; format: functional
Campylobacter jejuni [8] = test: Antibacterial activity against Campylobacter jejuni 001B-40 cmeB::kanamycin-resistant mutant by agar dilution method; format: functional
Campylobacter jejuni [9] = test: Ratio of MIC for Campylobacter jejuni 001B-22 carrying A2075G mutation in 23S rRNA to MIC for Campylobacter jejuni 001B-22 cmeB::kanamycin-resistant mutant; format: functional
Campylobacter jejuni [10] = test: Ratio of MIC for Campylobacter jejuni 001B-40 carrying A2075G mutation in 23S rRNA to MIC for Campylobacter jejuni 001B-40 cmeB::kanamycin-resistant mutant; format: functional
Campylobacter jejuni [11] = test: Antibacterial activity against Campylobacter jejuni 25-19 cmeB:: Kanamycin-resistant mutant by agar dilution method; format: functional
Campylobacter jejuni [12] = test: Antibacterial activity against Campylobacter jejuni 25-19 by agar dilution method; format: functional
Campylobacter jejuni [13] = test: Antibacterial activity against Campylobacter jejuni 15-21 by […]; format: functional
Campylobacter jejuni [14] = test: Antibacterial activity against Campylobacter jejuni 15-21 cmeB:: Kanamycin-resistant mutant by agar dilution method; format: functional
Campylobacter jejuni [15] = test: Antibacterial activity against Campylobacter jejuni 25-45 by agar dilution method; format: functional
Campylobacter jejuni [16] = test: Antibacterial activity against Campylobacter jejuni 25-45 cmeB:: Kanamycin-resistant mutant by agar dilution method; format: functional
Campylobacter jejuni [17] = test: Antibacterial activity against Campylobacter jejuni 81-176 carrying tet(O)+ gene by agar dilution method; format: functional
Campylobacter jejuni [18] = test: Antibacterial activity against Campylobacter jejuni 81-176 cmeB: kanamycin-resistant mutant carrying tet(O)+ gene; format: functional
Escherichia coli [19] = test: Antibacterial activity against Escherichia coli EW1b containing pDOB47; format: functional
Escherichia coli [20] = test: Antibacterial activity against wild type Escherichia coli DH5alpha by agar dilution assay; format: functional
Campylobacter jejuni [21] = test: Antibacterial activity against Campylobacter jejuni 23-51 assessed as inhibition of CmeABC efflux pump by agar dilution method; format: functional
Campylobacter jejuni [22] = test: Antibacterial activity against Campylobacter jejuni 23-51 cme:: Kanamycin-resistant mutant assessed by agar dilution method; format: functional

| Structure (SMILES) | fold change (FC) (Campylobacter jejuni [1]) | MIC (Campylobacter jejuni [3]) | MIC (Campylobacter jejuni [4]) | MIC (Campylobacter jejuni [5]) | MIC (Campylobacter jejuni [6]) | MIC (Campylobacter jejuni [7]) | MIC (Campylobacter jejuni [8]) | fold change (FC) (Campylobacter jejuni [9]) | also measured |
| --- | --- | --- | --- | --- | --- | --- | --- | --- | --- |
| N=C(N)NCCC[C@H](NC(=O)[C@@H](N)Cc1ccccc1)C(=O)Nc1ccc2ccccc2c1 (H-Phe-Arg-βNA) | 3 | – | – | – | – | – | – | – | fold change (FC) [2]: 2 |
| CC[C@H]1OC(=O)[C@H](C)[C@@H](O[C@H]2C[C@@](C)(OC)[C@@H](O)[C@H](C)O2)[C@H](C)[C@@H](O[C@@H]2O[C@H](C)C[C@H](N(C)C)[C@H]2O)[C@](C)(OC)C[C@@H](C)C(=O)[C@H](C)[C@@H](O)[C@]1(C)O [CLARITHROMYCIN] | 2 | 128 µg/mL (≈ 171 µM) | 64 µg/mL (≈ 85.6 µM) | 265 µg/mL (≈ 354 µM) | 128 µg/mL (≈ 171 µM) | 4 µg/mL (≈ 5.35 µM) | 8 µg/mL (≈ 10.7 µM) | 16 | fold change (FC) (Campylobacter jejuni [10]): >32 |
| CN(C)[C@@H]1C(O)=C(C(N)=O)C(=O)[C@@]2(O)C(O)=C3C(=O)c4c(O)cccc4[C@@](C)(O)[C@H]3C[C@@H]12 [TETRACYCLINE] | – | – | – | – | – | – | – | – | MIC (Campylobacter jejuni [11]): 4 µg/mL (≈ 9 µM); MIC (Campylobacter jejuni [12]): 64 µg/mL (≈ 144 µM); MIC (Campylobacter jejuni [13]): 128 µg/mL (≈ 288 µM); MIC (Campylobacter jejuni [14]): 4 µg/mL (≈ 9 µM); MIC (Campylobacter jejuni [15]): 256 µg/mL (≈ 576 µM); MIC (Campylobacter jejuni [16]): 8 µg/mL (≈ 18 µM); MIC (Campylobacter jejuni [17]): 32 µg/mL (≈ 72 µM); MIC (Campylobacter jejuni [18]): 2 µg/mL (≈ 4.5 µM); MIC (Escherichia coli [19]): 16 µg/mL (≈ 36 µM); MIC (Escherichia coli [20]): 64 µg/mL (≈ 144 µM); MIC (Campylobacter jejuni [21]): 512 µg/mL (≈ 1150 µM); MIC (Campylobacter jejuni [22]): 8 µg/mL (≈ 18 µM) |
| CC[C@H]1OC(=O)[C@H](C)[C@@H](O[C@H]2C[C@@](C)(OC)[C@@H](O)[C@H](C)O2)[C@H](C)[C@@H](O[C@@H]2O[C@H](C)C[C@H](N(C)C)[C@H]2O)[C@](C)(O)C[C@@H](C)C(=O)[C@H](C)[C@@H](O)[C@]1(C)O [ERYTHROMYCIN] | – | 1020 µg/mL (≈ 1400 µM) | 256 µg/mL (≈ 349 µM) | > 1020 µg/mL | 1020 µg/mL (≈ 1400 µM) | 4 µg/mL (≈ 5.45 µM) | 8 µg/mL (≈ 10.9 µM) | 64 | – |

From ChEMBL document CHEMBL1154409, “Contribution of the CmeABC efflux pump to macrolide and tetracycline resistance in Campylobacter jejuni” (2007)
